Patent US7101677B1, “Receptor assay” (University Court of the University of Glasgow, priority 1999, dated 2006)
Positions count from the first letter of the chain named.

Columns and labels:
[1] = biological target: T1, 3CAM hamster α1b-adrenoceptor/GFP fusion construct (Mesocricetus auratus, UniProt P18841, A293L/K290H/R288K); assay: Confocal microscopy, 3CAM α1b-adrenoceptor-GFP; assay type: cell-based; settings: 1 μM for 24h
T1 construct: expressed in transfected cells
T1 sequence (P18841 1-515 R288K/K290H/A293L): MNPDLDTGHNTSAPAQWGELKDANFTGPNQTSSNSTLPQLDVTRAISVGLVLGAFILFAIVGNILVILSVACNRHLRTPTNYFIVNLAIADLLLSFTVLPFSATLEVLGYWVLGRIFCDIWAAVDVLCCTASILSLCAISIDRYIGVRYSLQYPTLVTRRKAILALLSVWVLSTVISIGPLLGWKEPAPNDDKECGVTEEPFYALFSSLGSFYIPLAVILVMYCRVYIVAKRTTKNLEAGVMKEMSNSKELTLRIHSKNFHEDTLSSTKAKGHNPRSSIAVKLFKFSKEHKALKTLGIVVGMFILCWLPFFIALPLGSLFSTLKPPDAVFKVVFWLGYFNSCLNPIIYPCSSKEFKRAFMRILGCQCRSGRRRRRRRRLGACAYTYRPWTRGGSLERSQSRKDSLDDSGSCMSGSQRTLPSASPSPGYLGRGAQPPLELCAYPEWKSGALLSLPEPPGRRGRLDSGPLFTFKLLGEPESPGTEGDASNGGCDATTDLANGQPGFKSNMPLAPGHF
Method: (§1) Cells expressing either the 3CAM (10A) or wild type (10B) hamster α1b-adrenoceptor grown on glass cover slips were treated with vehicle (a), phentolamine (b), WB4101 (c) or HV723 (d) (all at 1 μM) for 24h. The cells were then visualised on a confocal microscope.
(§2) The images were manipulated with Zeiss LSM or MetaMorph software. Two different protocols for preparation of cells were used. When examining the time course of internalisation and recycling live cells were used. Cells were grown on glass coverslips and mounted on the imaging chamber. Cells were maintained in KRH buffer (see below) and temperature was maintained at 37° C. In other studies fixed cells were used. Cells on glass coverslips were washed with PBS and fixed for 20 min at room temperature using 4% paraformaldehyde in PBS/5% sucrose pH 7.2. After one wash with PBS coverslips were mounted on microscope slides with 40% glycerol in PBS.
(§3) In the first step the coding sequence of a modified form of GFP was modified by polymerase chain reaction (PCR) amplification. Using the amino-terminal primer 5′-[…]-3 the initiating Met of GFP was removed and both a Kpn I restriction site (underlined) and a 2-amino acid spacer (Gly-Asn) were introduced. Using the carboxy-terminal primer 5-[…]-3′ an Xba I restriction site (underlined) was introduced downstream of the stop codon of GFP. The amplified fragment of GFP digested with Kpn I and Xba I was subcloned into similarly digested pcDNA3 expression vector (Invitrogen). To obtain the α1B-adrenoceptor-GFP fusion proteins, the coding sequence of each form of the α1B-adrenoceptor was amplified by PCR. Using the amino-terminal primer 5′-[…]-3′, a Kpn I restriction site (underlined) was introduced upstream of the initiator Met. […] Finally, the GFP construct in pcDNA3 was digested with Kpn I and ligated together with the PCR product of the α1B-adrenoceptor amplification also digested with Kpn I. The open reading frames so produced represent the coding sequence of either the wild type or 3CAM α1B-adrenoceptor-GFPs. […]

[2] = biological target: T2, CAM α1b-adrenoceptor/GFP fusion protein (Mesocricetus auratus, UniProt P18841, A293L/K290H/R288K); assay: Plate fluorimetry, CAM α1b-adrenoceptor/GFP in HEK 293 cells; assay type: cell-based, hamster; settings: 22 hrs treatment, range in brackets, read-out: EC50 of up-regulation of fluorescence of CAM α1b-adrenoceptor/GFP
T2 construct: expressed in transfected cells
T2 sequence (P18841 1-515 R288K/K290H/A293L): T1 sequence (P18841 1-515 R288K/K290H/A293L)
Method: These cell lines were used to investigate ligand up-regulation of the CAM α1b-adrenoceptor/GFP fusion protein. Fusion protein upregulation was measured according to a gain in total cellular fluorescence in a plate based fluorimeter.
For experiments cells were seeded into black 96 well view plates (Costar) on the day before assay. […] Cells were incubated at 37° C. for 22 hours. After incubation fluorescence was detected using a Tecan Spectrafluor plus fluorimeter. To control for plate and media autofluorescence results were calculated by subtracting a blank plate reading from the fluorescence values obtained in drug treated cells.
The time course of ligand up-regulation of the CAM α1b-adrenoceptor/GFP fusion protein was also investigated. In this study cells were seeded and treated with drug as previously described but fluorescence in the blank plate and the cell plates were read at various time points between 2–31 hours after drug addition.

[3] = biological target: T3, wild type hamster α1b-adrenoceptor/GFP fusion construct (Mesocricetus auratus, UniProt P18841); assay: Confocal microscopy, wild type α1b-adrenoceptor-GFP; assay type: cell-based; settings: 1 μM for 24h
T3 construct: expressed in transfected cells
T3 sequence (P18841 1-515): T1 sequence (P18841 1-515 R288K/K290H/A293L) with K288R, H290K, L293A
Method: as §1, §2, §3

CAM β2-adrenoceptor-GFP = biological target: T4, CAM β2-adrenoceptor-GFP (Homo sapiens, UniProt P07550, H269K/K267R/L266S/L272A); assay: Confocal microscopy of CAM β2-adrenoceptor-GFP in HEK293 cells; assay type: cell-based; settings: 24h, 10^−5 M
T4 construct: GFP (modified form, Zernicka-Goetz et al. 1997); expressed in transfected cells

[4] = biological target: T5, wild-type α1b-adrenoceptor (Mesocricetus auratus, UniProt P18841); assay: [3H]prazosin specific binding to membranes after ligand treatment, wild type; assay type: cell-based, hamster; settings: FIG. 10C; [3H]prazosin 2 nM
T5 construct: expressed in transfected cells
T5 sequence (P18841 1-515): T1 sequence (P18841 1-515 R288K/K290H/A293L) with K288R, H290K, L293A
Method: (§4) Equivalent studies were performed on plates of cells which were then washed and harvested. Membranes were prepared and the specific binding capacity of a single concentration (2 nM) of [^3H]prazosin was then assessed (FIG. 10C).
(§5) HEK293 cells stably expressing each of the α1B-adrenoceptor-GFP fusion proteins were grown to confluence on 6 cm dishes. Prior to harvesting, cells were washed twice with 4 ml of ice-cold TE buffer (10 mM Tris, 0.1 mM EDTA pH 7.5) and then scraped into 1 ml of the same buffer. […] The suspension was centrifuged at 16000×g for 15 min and the resulting pellets resuspended in ice-cold TE buffer to final protein concentrations of 0.035–0.16 mg/ml.

3CAM α1b-adrenoceptor = biological target: T6, 3CAM α1b-adrenoceptor (Mesocricetus auratus, UniProt P18841, A293L/K290H/R288K); assay: [3H]prazosin specific binding to membranes after ligand treatment, 3CAM; assay type: cell-based, hamster; settings: FIG. 10C; [3H]prazosin 2 nM
T6 construct: expressed in transfected cells
T6 sequence (P18841 1-515 R288K/K290H/A293L): T1 sequence (P18841 1-515 R288K/K290H/A293L)
Method: as §4, §5

[5] = biological target: T7, PAR1mut/GFP fusion protein (Homo sapiens, UniProt P25116, A405G/G401A/L403A/M404G/N398G/Q402G/S399A/S400G/S406A/Y397A); assay: Agonist mediated down-regulation of PAR1mut/GFP in plate fluorimeter; assay type: cell-based; settings: 4 hours incubation
T7 construct: expressed in transfected cells
T7 sequence (P25116 22-425 Y397A/N398G/S399A/S400G/G401A/Q402G/L403A/M404G/A405G/S406A): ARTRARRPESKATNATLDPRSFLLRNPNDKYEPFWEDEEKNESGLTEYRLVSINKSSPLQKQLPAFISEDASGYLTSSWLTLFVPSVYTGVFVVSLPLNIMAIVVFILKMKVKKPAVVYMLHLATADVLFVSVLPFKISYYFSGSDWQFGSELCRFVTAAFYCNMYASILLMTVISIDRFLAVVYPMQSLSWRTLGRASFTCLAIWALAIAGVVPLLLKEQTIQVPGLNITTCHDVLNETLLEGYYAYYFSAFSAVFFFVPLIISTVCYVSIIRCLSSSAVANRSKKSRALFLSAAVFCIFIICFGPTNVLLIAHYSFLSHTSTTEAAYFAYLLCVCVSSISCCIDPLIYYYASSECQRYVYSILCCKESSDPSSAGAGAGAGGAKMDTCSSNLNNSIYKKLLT
Method: PAR1 receptor internalisation occurs through two mechanisms. […] This […] in the wild type receptor with the sequence […] (Shapiro and Coughlin, 1998). […] Cells were seeded into black 96 well view plates (Costar) the day before the experiment. The growth media was replaced with phenol red free DMEM/F12 (1:1) media containing 2 mM L-glutamine and either TRAP (10 μM-1 nM) or thrombin (1-0.0001 units/ml). The media also contained 0.5 mM Brilliant Black dye to absorb any media associated autofluorescence. […] To control for plate and media autofluorescence results were calculated by subtracting a blank plate reading from the fluorescence values obtained in drug treated cells.

Compound | upregulation of fluorescence of 3CAM α1b-adrenoceptor/GFP (confocal) [1] | EC50 [2] | upregulation of wild type α1b-adrenoceptor/GFP (confocal) [3] | upregulation of fluorescence of CAM β2-adrenoceptor-GFP (confocal) (CAM β2-adrenoceptor-GFP) | other results
CCC(C#N)(CCCNCCOc1ccccc1OC)c1cc(OC)c(OC)c(OC)c1 (stereo not drawn) [HV 723] | Upregulation of the 3CAM | 417 nM | not wild type | – | –
COc1cccc(OC)c1OCCNCC1COc2ccccc2O1 (stereo not drawn) [WB 4101] | Upregulation of the 3CAM | 676 nM | not wild type | – | –
CCCc1ccccc1OCC(O)CNC(C)C (stereo not drawn) [dihydroalprenolol] | – | – | – | Upregulation of fluoresence | –
Cc1ccc(N(CC2=NCCN2)c2cccc(O)c2)cc1 [phentolamine] | Upregulation of the 3CAM | 170 nM | not wild type | – | –
COc1cc2nc(N3CCN(C(=O)c4ccco4)CC3)nc(N)c2cc1OC [prazosin] | – | – | – | not recorded | effect on wild-type α1b-adrenoceptor level ([3H]prazosin specific binding) [4]: no effect; effect on 3CAM α1b-adrenoceptor level ([3H]prazosin specific binding) (3CAM α1b-adrenoceptor): upregulation
COC(=O)[C@@H]1[C@H]2C[C@H]3c4[nH]c5ccccc5c4CCN3C[C@@H]2CC[C@@H]1O [yohimbine] | – | – | – | not recorded | –
thrombin | – | – | – | – | maximum decrease (loss) in fluorescence of PAR1 mut/GFP construct [5]: about 5%
